Source: patent publication US7314720B2, “Method of diagnosing non-alcoholic steatohepatitis (nash) using molecular markers” (One Way Liver Genomic, S.L., priority 2002, dated 2008)

Test system: PHB1
Assay: PHB1 level regulation in cultured rat hepatocytes (Western blot)
Format: cell-based
Settings: for effect on PHB1 levels: 24 h incubation under standard conditions, 100 μM methionine or 4 mM AdoMet in culture media
Method: FIG. 5 illustrates PHB1 level regulation by AdoMet in cultured rat hepatocytes. PHB1 levels were measured in rat hepatocytes cultured for 12 or 24 hours in the presence or absence of 100 μM methionine, 4 mM AdoMet or 20 mM cycloleucine. Liver extracts (15 μg/lane) were analyzed by Western blotting using specific antibodies. To ensure equal loading, the membranes were stained with red Ponceau. A representative blot from three independent experiments is shown. Hepatocytes were isolated from male Wistar rats (200-250 g) by perfusion with collagenases, as previously described ([…]., et al., Gastroenterology, 1998, 114:364-371). Once isolated, hepatocytes were cultured according to García-Trevijano et al. […] Cell viability was measured by trypan blue exclusion, and no significant differences were observed between the controls and any of the different treatments performed in this study. Protein extraction and western blotting were performed as previously described ([…]., et al., Oncogene, 1995, 10:963-971; Ruiz, F., et al., Hepatology, 1998, 28:1051-1057). Briefly, equal amounts of protein (15 μg) were resolved in SDS/12.5% polyacrylamide gels. Proteins were electrophoretically transferred to nitrocellulose membranes. Membranes were probed with anti-MAT (Ruiz, F., et al., Hepatology, 1998, 28:1051-1057), anti-PHB1, anti-β ATPase and anti-COX I and II. A secondary antibody conjugated to horseradish peroxidase was used. Blots were developed by chemiluminescence (Dupont).

Row | Structure (SMILES) | effect on PHB1 levels | down-regulation of PHB1 (20 mM CL added to culture medium) [%] | decrease of PHB1 in the absence of methionine (exogenous addition of 4 mM AdoMet after 12 hours culture in the absence of methionine)
1 | CSCC[C@H](N)C(=O)O [methionine] | no effect | – | –
2 | NC1(C(=O)O)CCCC1 [CL, cycloleucine] | – | 55 | –
3 | C[S+](CC[C@H](N)C(=O)[O-])C[C@H]1O[C@@H](n2cnc3c(N)ncnc32)[C@H](O)[C@@H]1O (stereo partly shown) [AdoMet, S-adenosylmethionine] | no effect | – | prevented the decrease of PHB1
